The text below walks through data of patent US20120035187A1 (priority 2009, published 2012).

Where a name gives a salt, the structure may show the parent alone.

Data set [1] relates to APP Tg mouse. The data set can be described thus: Passive avoidance test, APP transgenic mouse. As to conditions: dose 200 μg/kg body weight, five times a week for 12 weeks. The class given is in vivo.
Data set [2] concerns APP Tg mouse. The data set can be described thus: Water maze test, APP transgenic mouse. Type of data set: in vivo. As to conditions: dose 200 μg/kg body weight, time required for arriving the platform.
Data set [3] concerns brain ischemia rat. The data set can be described thus: Brain ischemia (cerebral infarction model) rat: behavioral score. Type of data set: in vivo. More on the design: Behavioral score: scale not given here. As to conditions: for Behavioral score: embolus rat, caudal vein. As to the method: Male SD rats, seven- to eight-weeks of age and 280 to 330 g body weight, commercialized by Charles River Laboratories Japan Inc., Kanagawa, Japan, were allocated randomly into seven groups, consisting of five to seven rats in each group. Among the seven groups, five groups were subjected to the following surgery as test groups: Rats in the test groups were subcutaneously administered with 0.3 mg/kg body weight of atropine, commercialized by Fuso Pharmaceutical industries, Osaka, Japan. Successively, each rat was anesthetized by administrating 600 mg/kg body weight of urethane, commercialized by Sigma-Aldrich Co., MO, USA, and 60 mg/kg-weight of […], commercialized by Sigma-Aldrich Co., MO, USA, into the peritoneal cavity, and fixed to a fixator under voluntary breathing conditions. The right carotid artery bifurcation was exposed by median incision of the neck without damaging vagus nerve. The common carotid artery and external carotid artery around the right carotid artery bifurcation were exfoliated from surrounding connective tissue and wired respectively using “NESCOSUTURE”, a 6-0 nylon string commercialized by Alfresa Pharma Corporation, Osaka, Japan. Then, the internal carotid artery was tied with the 6-0 nylon string for fixation after insertion of an obturator. Successively, the common carotid artery was incised and a silicon-coated obturator, prepared by a 4-0 nylon string, commercialized by Doccol Corp., CA, USA, was inserted from the common carotid artery into the internal carotid artery at a distance of about 16 mm, and clipped to the common carotid artery (see, for example, Koizumi et al., Cerebral stroke, Vol. 8, No. 1, pp. 1-8 (1986)). By the method, the silicon-coated tip of obturator was inserted through the right carotid artery bifurcation to frontal cerebral artery at a distance of about 2 mm and obstructs the inlet of the medial cerebral artery. After two hours occlusion of the medial cerebral artery while keeping the rat on an isothermal pad controlled at a temperature of 37° C., blood was allowed to reperfuse by withdrawing the obturator. Then, the internal carotid artery was tied near the carotid artery bifurcation for preventing the bleeding from the incised part of the common carotid artery. In the model, the blood was reperfused through the left carotid artery, vertebral artery, basilar artery, frontal and backward communication artery because the right carotid artery was clipped.
NK-4, NK-19, NK-53, NK-100, and NK-557, used in the test, were respectively dissolved in DMSO (product No. “D8418”, commercialized by Sigma-Aldrich Co., MO, USA) to give a concentration of 5 mg/ml and filtrated using “MILLEX-LG SLLG025SS”, a DMSO-resistant membrane filter commercialized by Millipore, MA, USA. Stock […], and then 4 ml/kg body weight of any of the resulting diluted solutions was administered ([…]) to five test groups (test groups 1 to 5) consisting of five or seven rats, through their caudal veins at both after one hour from the occlusion of middle cerebral artery and immediately after initiating reperfusion. After 24 hours from the reperfusion of blood, behavioral and histological evaluations of rats were carried out according to the following procedures: As a control group 1, five rats in one group out of the remaining two groups were subjected to the same surgery as the rats in the test groups 1 to 5, and administered with 4 ml/kg body weight of PBS free of any of the compounds through their caudal veins at both after one hour of the medial cerebral artery occlusion and immediately after the start of reperfusion. As the control group 2, six rats in the remaining one group were subjected to a sham surgery, in which common, external, and internal carotid arteries were clipped and then reperfused their blood without inserting the obturator to each medial cerebral artery. […]

Data set [4] deals with brain ischemia rat. The experiment in a line: Brain ischemia (cerebral infarction model) rat: size/volume of cerebral infarction region (TTC). Type of data set: in vivo. As to conditions: for Volume of cerebral infarction region (mm^3): embolus rat, caudal vein.
Data set [5] can be described thus: Hydroxyl radical-scavenging activity, ESR (Fenton reaction). As to the method: Stock solutions, prepared by dissolving NK-4, NK-19, NK-53, NK-100, and NK-557 in DMSO, were respectively diluted with refined water to give concentrations of 3-folds higher than those in Table 14 and used as test sample solutions. As a positive control, a neuroprotectant, “edaravone”, commercialized as “RADICUT®” containing 3-methyl-1-phenyl-2-pyrazoline-5-one as an effective ingredient by Mitsubishi Tanabe Pharma Corporation, Osaka, Japan, was diluted with refined water to give a concentration of 3-folds higher than that in Table 14 for use. To 50 μl of refined water, 50 μl of 89 mM DMPO ([…]) commercialized by Dojindo Laboratories, Kumamoto, Japan, 50 μl of the test sample solution, and 50 μl of an aqueous solution containing 1 mM hydrogen peroxide, 1 mM FeSO4, and 1 mM DTPA, commercialized by Wako Pure Chemical Industries, Osaka, Japan, were added, mixed for 10 seconds using a vortex mixer and allowed to react in an incubator controlled at 37° for 40 seconds. After 30 seconds from completion of the reaction, the resulting reaction mixture was subjected to ESR measurement. A control solution was prepared by the same method as above except for using 50 μl of a diluted edaravone solution as a substitute for the test sample solution, and subjected to ESR measurement.
The reaction mixture for measuring hydroxyl or peroxyl radicals was poured into a flat quartz cell for ESR, set to “FREE RADICAL MONITOR JES-FR30”, an ESR apparatus commercialized by JOEL Ltd., Tokyo, Japan, and ESR was measured according to manual manner. The residual ratio of peroxyl radical (%) was determined as a relative value by defining the ESR value, obtained by using 0.1 M phosphate buffer as a substitute of the test sample solution, as 100. The results are in Tables 14 and 15. […] Therefore, the IC50 of edaravone was determined by another test using its higher concentration, and the result is also shown in Table 14. The conditions of the ESR measurement were set as follows: […]

The test system of a further data set is PC12-HS cells. Details: suppression of cytotoxicity by 6-hydroxy dopa (in words): dose or concentration left out as unconfirmed.
[6] abbreviates: Experiment 13, cerebral-infarction-model rat, administered through caudal vein.

Procedure for PC12-HS cells: 6-Hydroxy dopa was used as a cytotoxic agent. Similarly as in Experiment 1, PC12-HS cells, which had been cultured in D-MEM medium supplemented with 10 v/v % FBS, were inoculated to 96-well microplates by 2×10^4/100 μl/well. […] Thereafter, the cells were fixed with 10% glutaraldehyde and the absorbance at 650 nm was measured by conventional dye-uptake method using methylene blue.

On to `COc1cc2c(cc1OC)C(=O)C(CC1CCN(Cc3ccccc3)CC1)C2` (stereo not shown) [Donepezil HCl], for which the “Passive avoidance reaction” value with APP Tg mouse [1] was 200 ± 61 s. Besides, the “Water maze test 1st day” value in the data set on APP Tg mouse [2] (1st day) was found to be 120 ± 0. In the data set on APP Tg mouse [2] (2nd day), the “Water maze test 2nd day” value is listed as 77 ± 19. Also, the “Water maze test 3rd day” value with APP Tg mouse [2] (3rd day) amounted to 53 ± 13. In addition, in the data set on APP Tg mouse [2] (4th day), the “Water maze test 4th day” value worked out at 62 ± 16.
For the compound `CC1=NN(c2ccccc2)C(=O)C1` [Edaravone, 3-methyl-1-phenyl-2-pyrazoline-5-one, reference compound], the “behavioral score (in words)” value in the data set with brain ischemia rat [3] (setting [6]) was “significantly improved”. Moreover, the Behavioral score amounted to 4.7 ± 0.4 in the data set on brain ischemia rat [3] (dose 0.3 mg per kg body weight), 3.7 ± 0.5 with brain ischemia rat [3] (dose 1 mg per kg body weight) and 4.8 ± 0.2 in the data set on brain ischemia rat [3] (dose 3 mg per kg body weight). In addition, the “increment of the volume of cerebral infarction region (in words)” value in the data set with brain ischemia rat [4] (setting [6]) was “not significantly suppressed”. In addition, the “Volume of cerebral infarction region (mm^3)” value worked out at 179 ± 27 mm^3 with brain ischemia rat [4] (dose 0.3 mg per kg body weight), 152 ± 28 mm^3 in the data set with brain ischemia rat [4] (dose 1 mg per kg body weight) and 183 ± 16 mm^3 in the data set with brain ischemia rat [4] (dose 3 mg per kg body weight). Moreover, the “IC50 (μg/ml) of hydroxyl radical-scavenging activity” value in data set [5] is 148.0 µg/mL. Besides, the “Residual ratio of hydroxyl radical (%)” value in data set [5] (concentration of compound 2.5 μg/ml), in data set [5] (concentration of compound 3.13 μg/ml), in data set [5] (concentration of compound 6.25 μg/ml) and in data set [5] (concentration of compound 12.5 μg/ml) was 100% throughout. Moreover, the “suppression of cytotoxicity by 6-hydroxy dopa (in words)” value with PC12-HS cells is on record as “can not suppress the cytotoxicity”.
